The text below walks through data of US8513292B2, “Compositions and methods for the treatment of cancer” (ArQule, Inc., priority 2007, dated 2013).

Each structure is given as a SMILES string. Where a SMILES comes first, the peptide text is derived from it. The star is where a group is joined. Cbz = O=C(OCc1ccccc1)*; CH2F = FC*

Data set [1] concerns HT29 cells. Put plainly: MTS assay. It is filed as cell-based. To be noted: Homo sapiens, HT-29, compound for 24 hours, then drug-free medium for additional 48 hours, MTS readout. How it is done:
HT29 cells were seeded in 96-well plates at 1,800 cells/well overnight in medium with 10% FBS. The next day, cells were treated with increasing concentrations of compounds for 24 hours at 37° C. After the treatments, the compound-containing medium was removed, cells were washed twice with PBS, and incubated in drug-free medium containing 10% FBS for an additional 48 hours. After addition of MTS and PMS for 4 hours at concentrations of 2 mg/mL and 0.92 mg/mL, respectively, the results were quantitated by spectrophotometry at λ=490 nm and IC50 for each compound was determined
A general note: Formazan colour is commonly taken as a measure of viable cells.

Data set [2] concerns the target T1, Recombinant unphosphorylated c-Met comprising residues 1038-1346 (Homo sapiens, UniProt P08581).
T1 construct: The DNA fragment encoding the kinase domain (1038-1346) was inserted into Novagen vector pet28a; six-histidine tag (N); made in house; host or cells: E. coli BL21(DE3)RIL
Briefly: c-Met p33 kinase assay (33P-ATP, IGF-1 Rtide substrate). The format is biochemical. To be noted: 15 minutes preincubation, 100 μM ATP, 30 minutes reaction. An excerpt:
cDNA of full-length c-Met purchased from Origen Technologies was used as template for PCR amplification. The DNA fragment encoding the kinase domain (1038-1346) was inserted into Novagen vector pet28a between Nco1 and Sal1 sites. The primers were designed to contain a six-histidine tag to the N-terminus. In order to express dephosphorylated c-Met kinase protein, a tyrosine phosphatase PTP1B (1-283) was sequentially ligated into the made construct between SalI and Nod sites. A second ribosome binding site was incorporated in the PTP1B primer after the SalI site. The N-terminal His-tagged proteins were expressed in Circlegrow broth (Q-Biogen). The transformed E. Coli cell line BL21(DE3)RIL (Stratagene) was cultured to OD=0.8 at 37° C. and induced with 0.3 mM of IPTG for overnight at 12° C. The co-expressed protein was purified by metal-chelation chromatography followed by anion and cation columns. In brief, 4 liters of cells were lysed by sonication in 140 ml buffer containing 20 mM MOPS pH=6.5, 200 mM NaCl, 7.5% glycerol, 0.1% Igepal, supplied with 1 mM PMSF. The supernatant was obtained by centrifugation at 50,000 g for 30 minutes and followed by incubation with 8 mL of Ni-NTA His Bind resin (Novagen) at 4° C. for one hour. A second step 50 mL wash buffer (with 100 mM NaCl and 5 mM imidazole) was applied after initial wash with the lysis buffer. Protein was eluted by 200 mM imidazole pH=8.5, 100 mM NaCl and 7.5% glycerol and directly cleared by passing 10 mL QFF column. The salt concentration and the pH value of the protein flow through were adjusted to 50 mM and 7.5 by dilution, and then loaded to 1 mL SP FF column. The protein was further gel-filtered in an equilibrium buffer of 20 mM TrisHCl pH=8.5, 150 mM NaCl, 7.5% glycerol and 2 mM DTT. The monomeric unphosphorylated c-Met protein was concentrated to 30 mg/mL for storage at −80° C.
Recombinant unphosphorylated c-Met comprising residues 1038-1346 (12.5 ng) was pre-incubated with increasing concentrations of compounds for 15 minutes at room temperature. […]

The test system of data set [3] is HT29 cells. Briefly: Cell death by Annexin V-Fluos staining after siRNA transfection, high content imaging. It is filed as cell-based. To be noted: increasing concentrations of caspase inhibitor for 1 additional day after transfection. How it is done:
Exponentially growing HT29 cells were plated in black 96-well plates at 5,000 cells/well overnight in medium with 10% FBS. The next day, cells were transiently transfected for 2 days using DharmaFECT 4 reagent with a pool of four met-specific 21-nucleotide RNA oligonucleotides forming a 19-bp duplex core with 2-nucleotide 3′ overhang in combination (Dharmacon, Inc., Lafayette, Colo.). Transfection of gapdh siRNA (Dharmacon, Inc.) and of a non-targeting siRNA under the same conditions was done in parallel as controls (Dharmacon, Inc.). Cells were then incubated in the absence or the presence of increasing concentrations of ZvAD-FMK, an irreversible caspase inhibitor for 1 additional day. Cells were incubated for at least 10 minutes in a labeling solution (10 mM HEPES, 140 mM NaCl and 6 mM CaCl2) containing 2 μg/ml Hoechst 33342 (blue channel; Molecular Probes/Invitrogen Corp., Natick, Mass.), 500 times diluted Annexin V-Fluos (green channel; Roche Applied Science, Indianapolis, Ind.) and 1 μg/ml propidium iodide (red channel; Roche Applied Science). High content image acquisition and analysis were carried out using a Beckman Coulter IC100 Cytometer. The program was set to take four images per well. […] Images were processed and numbers of positive cells for each channel and each condition were determined using Cytoshop 2.1 software (Beckman Coulter, Inc.). […]

T1 sequence (P08581 1038-1346): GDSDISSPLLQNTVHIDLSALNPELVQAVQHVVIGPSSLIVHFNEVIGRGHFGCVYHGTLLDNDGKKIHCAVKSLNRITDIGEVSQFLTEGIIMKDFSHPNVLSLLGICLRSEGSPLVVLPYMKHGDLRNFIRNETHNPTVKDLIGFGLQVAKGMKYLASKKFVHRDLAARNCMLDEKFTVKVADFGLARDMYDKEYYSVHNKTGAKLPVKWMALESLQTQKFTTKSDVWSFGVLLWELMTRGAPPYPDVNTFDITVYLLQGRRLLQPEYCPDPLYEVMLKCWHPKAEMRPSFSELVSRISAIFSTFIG

`O=C1NC(=O)[C@@H](c2ccccc2Cl)[C@@H]1c1cc2c3c(ccn3CCC2)c1` (racemic) [Example 22, (±)-trans-3-(2-chloro-phenyl)-4-(5,6-dihydro-4H-pyrrolo[3,2,1-ij]quinolin-8-yl)-pyrrolidine-2,5-dione] registered a melting point of 209 to 212 °C. Also, in data set [1], the IC50 is no more than 1 µM.

`O=C1NC(=O)[C@@H](c2cc3c4c(ccn4CCC3)c2)[C@H]1c1c[nH]c2ccccc12` (racemic) [Example 16] returned a melting point of 141 to 145 °C. This molecule also showed an IC50 in data set [1] of no more than 1 µM. Further, the IC50 in data set [2] was no less than 10 µM.

In the case of `COC(=O)C[C@H](NC(=O)[C@H](C)NC(=O)[C@@H](NC(=O)OCc1ccccc1)C(C)C)C(=O)CF` [ZvAD-FMK] (Cbz-Val-Ala-Asp(OMe)-CH2F), the “levels of cell death in met siRNA transfected cells” value in data set [3] is reported as “decreased the levels of cell death”.

For the molecule `O=C1NC(=O)[C@@H](c2c[nH]c3ccccc23)[C@@H]1Cc1cn2c3c(cccc13)CCC2` (racemic) [Example 6, (±)-trans-3-(5,6-dihydro-4H-pyrrolo[3,2,1-ij]quinolin-1-ylmethyl)-4-(1H-indol-3-yl)-pyrrolidine-2,5-dione], the melting point lay in the range of 215 to 218 °C. In data set [1], this molecule returned an IC50 of 1 to 10 µM.

In the case of `COc1cccc([C@@H]2C(=O)NC(=O)[C@H]2c2cc3c4c(ccn4CCC3)c2)c1` (racemic) [Example 25, (±)-trans-3-(5,6-dihydro-4H-pyrrolo[3,2,1-ij]quinolin-8-yl)-4-(3-methoxy-phenyl)-pyrrolidine-2,5-dione], the IC50 in data set [1] is no more than 1 µM.

On to `O=C1NC(=O)[C@@H](c2c[nH]c3ccc(Br)cc23)[C@@H]1c1cc2c3c(ccn3CCC2)c1` (racemic) [Example 19, (±)-trans-3-(5-bromo-1H-indol-3-yl)-4-(5,6-dihydro-4H-pyrrolo[3,2,1-ij]quinolin-8-yl)-pyrrolidine-2,5-dione], for which the melting point fell in the range of 195 to 200 °C. This molecule showed an IC50 in data set [1] of no more than 1 µM.

The molecule `O=C1NC(=O)[C@@H](c2cn3c4c(cccc24)CC3)[C@@H]1c1c[nH]c2ccccc12` (racemic) [Example 33, (±)-trans-3-(4,5-dihydro-pyrrolo[3,2,1-hi]indol-1-yl)-4-(1H-indol-3-yl)-pyrrolidine-2,5-dione] yielded a melting point of 144 to 148 °C. The molecule also displayed an IC50 in data set [1] of no more than 1 µM. Moreover, in data set [2], the IC50 is no less than 10 µM.

The molecule `O=C1NC(=O)[C@H](c2c[nH]c3ccccc23)[C@@H]1C(=O)c1cn2c3c(cccc13)CCC2` (racemic) [Example 9, (±)-cis-3-(5,6-dihydro-4H-pyrrolo[3,2,1-ij]quinoline-1-carbonyl)-4-(1H-indol-3-yl)-pyrrolidine-2,5-dione] gave a melting point of 283 to 285 °C. In data set [1], this molecule yielded an IC50 of 1 to 10 µM. The IC50 in data set [2] was no less than 10 µM.

One may read the melting point as the temperature of the solid-liquid transition. What is called IC50 is the midpoint of a concentration-inhibition curve.
